Measured values taken from patent publication US20250051344A1, “BIFUNCTIONAL SELECTIVE DEGRADERS OF SMARCA2 AND THERAPEUTIC USES THEREOF” (Nurix Therapeutics, Inc., priority 2023, published 2025).

Legend:
SMARCA2 = target: T1, SMARCA2 (Homo sapiens, UniProt P51531); assay: SMARCA2 Cellular Degradation Assay (Western blot analysis on Jess platform); format: cell-based; conditions: for DC50 / Dmax: cellular degradation; for Fold Selectivity SMARCA4/2: ratio DC50 SMARCA4 / DC50 SMARCA2
T1 construct: endogenous in cells
Protocol: SMARCA2 Cellular Degradation Assay
Western Blot Analysis for SMARCA2 Degradation
Frozen cell pellets were thawed on ice and resuspended in RIPA lysis buffer (Millipore, Cat. No. 20-188) supplemented with 0.2% SDS (Fisher Scientific, Cat. No. 24730020), 200 mM β-glycerophosphate (Alfa Aesar, Cat. No. J62121), 500 mM NaF (Rigaku, Cat. No. 1008046), protease inhibitor (1 tablet per 10 mL, Sigma, Cat. No. 11836170001), 250 U/μL benzonase (Millipore, Cat. No. 71206), 200 mM sodium orthovanadate (FivePhoton, Cat. No. ActVO-4), and 100 mM PMSF (Sigma, Cat. No. 10837091001). 50 μL lysis buffer was used to lyse each pellet containing 5×10E5-1×10E6 live cells extracted from tumors. Lysates were centrifuged for 10 mins at 20,817×g and lysate supernatants were saved for further analysis. Protein levels were determined by the BCA Assay performed according to manufacturer's protocol (EMD Millipore, Cat. No. 71285-3). Samples were evaluated by Western blot analysis on the Jess Platform (ProteinSimple). Lysates were diluted with complete lysis buffer (as described above) and 5 μg of total proteins were loaded onto each capillary. Samples were prepared using the ProteinSimple EZ Standard Pack 1 (Cat. No. PS-ST01EZ-8; containing tubes with powdered (5×) Fluorescent Master Mix, DTT, and biotinylated ladder) and run using the ProteinSimple 25-Capillary Cartridge kit (Cat. No. SM-W004; containing 25-capillary cartridge Wash reagent, and 10× Sample Buffer reagent), the ProteinSimple Anti-Rabbit HRP Detection Module for Jess (Cat. No. DM-001; containing Antibody Diluent, anti-rabbit secondary antibody, Luminol-S, Peroxide, and Streptavidin-HRP), and the ProteinSimple Anti-Mouse NIR Detection Module for Jess (Cat. No. DM-009; containing Antibody Diluent, anti-mouse NIR secondary antibody, and Streptavidin-NIR) as the following describes. The DTT was reconstituted with 40 μL water to make a 400 mM solution, 20 μL of the DTT solution plus 20 μL of 10× Sample Buffer were added to reconstitute the 5× Fluorescent Master Mix, and 20 μL of H2O was used to reconstitute the biotinylated ladder. For each sample, lysate (4 μL) was combined with 5× Fluorescent Master Mix (1 μL) and heated at 95° C. for 5 minutes. Samples were cooled and stored on ice. Primary antibody solution was made using anti-SMARCA2 antibody (Abcam, Cat. No. 240648, 1:10) and anti-beta-Actin antibody (Cell Signaling Technology, Cat. No. 3700S, 1:25) in antibody diluent. The 25-capillary cartridges were prepared per standard ProteinSimple protocol with each sample in a column. For the biotinylated ladder in column 1, the following were added: 5 µL of ladder sample in Row A, 10 μL of antibody diluent in Rows B and C, 10 μL of Streptavidin-NIR in Row D, and 15 μL of a 50:50 Luminol-s/Peroxide solution in Row E. For each test sample (columns 2-25), the following were added per column: 5 μL of sample in Row A, 10 μL of antibody diluent in Row B, 10 μL of primary antibody solution in Row C, 10 μL of secondary antibody in Row D, and 15 μL of a 50:50 Luminol-S/Peroxide solution in Row E. 500 μL wash buffer was added to the wash buffer wells in the cartridge and cartridge was spun at 1000×g for 5 minutes prior to loading into the Jess. Samples were run using the Chemiluminescence and Fluorescence immunoassays in the ProteinSimple Compass for SimpleWestern program (version 5.0.0). After running, SMARCA2, actin, and background curves were identified in the Compass software; note that in the Compass software, the electropherograms are also visualized as bands for comparison with standard Western blot outputs. The electropherogram area reading for each sample curve was normalized to that of the corresponding actin curve per column following background (capillary background) subtraction using the following equation: […]
Following normalization, the percentage of SMARCA2 remaining per sample relative to the vehicle control was calculated as follows: […]

SMARCA4 = target: T2, SMARCA4 (Homo sapiens, UniProt P51532); assay: Cellular degradation assay, SMARCA4 (Table 1); format: cell-based
T2 construct: endogenous in cells
T2 sequence (P51532 whole entry, species assumed): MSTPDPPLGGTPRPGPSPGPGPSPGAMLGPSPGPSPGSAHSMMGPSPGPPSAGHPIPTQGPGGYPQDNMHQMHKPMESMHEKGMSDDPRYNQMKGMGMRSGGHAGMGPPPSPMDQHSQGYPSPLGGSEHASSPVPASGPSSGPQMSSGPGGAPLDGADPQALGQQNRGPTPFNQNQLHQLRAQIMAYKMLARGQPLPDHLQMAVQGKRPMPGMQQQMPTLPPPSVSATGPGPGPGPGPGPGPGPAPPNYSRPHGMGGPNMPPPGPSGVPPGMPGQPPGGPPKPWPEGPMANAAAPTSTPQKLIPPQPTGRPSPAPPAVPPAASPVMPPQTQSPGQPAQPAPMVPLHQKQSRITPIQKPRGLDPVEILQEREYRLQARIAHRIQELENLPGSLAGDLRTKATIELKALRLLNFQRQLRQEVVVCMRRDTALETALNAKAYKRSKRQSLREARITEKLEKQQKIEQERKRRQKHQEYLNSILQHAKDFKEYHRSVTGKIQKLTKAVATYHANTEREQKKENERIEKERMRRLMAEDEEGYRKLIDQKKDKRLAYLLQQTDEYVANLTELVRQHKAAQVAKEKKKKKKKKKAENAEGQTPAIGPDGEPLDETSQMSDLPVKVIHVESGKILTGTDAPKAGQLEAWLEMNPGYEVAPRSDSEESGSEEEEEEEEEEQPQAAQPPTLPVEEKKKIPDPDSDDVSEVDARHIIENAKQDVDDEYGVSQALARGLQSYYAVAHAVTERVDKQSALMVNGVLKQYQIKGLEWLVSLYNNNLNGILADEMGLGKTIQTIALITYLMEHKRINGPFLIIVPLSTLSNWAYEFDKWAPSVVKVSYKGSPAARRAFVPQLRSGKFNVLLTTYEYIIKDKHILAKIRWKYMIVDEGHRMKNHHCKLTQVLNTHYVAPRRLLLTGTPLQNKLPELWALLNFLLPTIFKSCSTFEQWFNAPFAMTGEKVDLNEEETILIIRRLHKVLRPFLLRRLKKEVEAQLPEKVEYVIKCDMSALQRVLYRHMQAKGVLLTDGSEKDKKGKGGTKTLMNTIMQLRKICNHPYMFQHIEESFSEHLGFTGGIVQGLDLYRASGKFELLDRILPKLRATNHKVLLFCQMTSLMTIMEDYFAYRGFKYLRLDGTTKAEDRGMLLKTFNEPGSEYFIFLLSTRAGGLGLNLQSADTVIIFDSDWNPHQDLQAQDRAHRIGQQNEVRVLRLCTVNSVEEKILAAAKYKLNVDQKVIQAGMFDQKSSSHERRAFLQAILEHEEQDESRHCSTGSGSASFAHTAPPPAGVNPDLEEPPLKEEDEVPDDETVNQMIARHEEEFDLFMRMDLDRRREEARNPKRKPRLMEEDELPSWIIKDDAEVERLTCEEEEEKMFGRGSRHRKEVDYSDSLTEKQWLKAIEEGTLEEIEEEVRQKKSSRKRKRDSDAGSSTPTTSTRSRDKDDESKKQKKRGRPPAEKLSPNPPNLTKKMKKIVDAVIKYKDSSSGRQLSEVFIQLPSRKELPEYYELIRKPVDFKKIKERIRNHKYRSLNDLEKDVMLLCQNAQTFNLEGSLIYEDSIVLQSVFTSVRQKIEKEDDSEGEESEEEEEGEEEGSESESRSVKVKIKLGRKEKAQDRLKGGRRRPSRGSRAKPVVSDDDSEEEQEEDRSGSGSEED

T1 sequence (P51531 whole entry, species assumed): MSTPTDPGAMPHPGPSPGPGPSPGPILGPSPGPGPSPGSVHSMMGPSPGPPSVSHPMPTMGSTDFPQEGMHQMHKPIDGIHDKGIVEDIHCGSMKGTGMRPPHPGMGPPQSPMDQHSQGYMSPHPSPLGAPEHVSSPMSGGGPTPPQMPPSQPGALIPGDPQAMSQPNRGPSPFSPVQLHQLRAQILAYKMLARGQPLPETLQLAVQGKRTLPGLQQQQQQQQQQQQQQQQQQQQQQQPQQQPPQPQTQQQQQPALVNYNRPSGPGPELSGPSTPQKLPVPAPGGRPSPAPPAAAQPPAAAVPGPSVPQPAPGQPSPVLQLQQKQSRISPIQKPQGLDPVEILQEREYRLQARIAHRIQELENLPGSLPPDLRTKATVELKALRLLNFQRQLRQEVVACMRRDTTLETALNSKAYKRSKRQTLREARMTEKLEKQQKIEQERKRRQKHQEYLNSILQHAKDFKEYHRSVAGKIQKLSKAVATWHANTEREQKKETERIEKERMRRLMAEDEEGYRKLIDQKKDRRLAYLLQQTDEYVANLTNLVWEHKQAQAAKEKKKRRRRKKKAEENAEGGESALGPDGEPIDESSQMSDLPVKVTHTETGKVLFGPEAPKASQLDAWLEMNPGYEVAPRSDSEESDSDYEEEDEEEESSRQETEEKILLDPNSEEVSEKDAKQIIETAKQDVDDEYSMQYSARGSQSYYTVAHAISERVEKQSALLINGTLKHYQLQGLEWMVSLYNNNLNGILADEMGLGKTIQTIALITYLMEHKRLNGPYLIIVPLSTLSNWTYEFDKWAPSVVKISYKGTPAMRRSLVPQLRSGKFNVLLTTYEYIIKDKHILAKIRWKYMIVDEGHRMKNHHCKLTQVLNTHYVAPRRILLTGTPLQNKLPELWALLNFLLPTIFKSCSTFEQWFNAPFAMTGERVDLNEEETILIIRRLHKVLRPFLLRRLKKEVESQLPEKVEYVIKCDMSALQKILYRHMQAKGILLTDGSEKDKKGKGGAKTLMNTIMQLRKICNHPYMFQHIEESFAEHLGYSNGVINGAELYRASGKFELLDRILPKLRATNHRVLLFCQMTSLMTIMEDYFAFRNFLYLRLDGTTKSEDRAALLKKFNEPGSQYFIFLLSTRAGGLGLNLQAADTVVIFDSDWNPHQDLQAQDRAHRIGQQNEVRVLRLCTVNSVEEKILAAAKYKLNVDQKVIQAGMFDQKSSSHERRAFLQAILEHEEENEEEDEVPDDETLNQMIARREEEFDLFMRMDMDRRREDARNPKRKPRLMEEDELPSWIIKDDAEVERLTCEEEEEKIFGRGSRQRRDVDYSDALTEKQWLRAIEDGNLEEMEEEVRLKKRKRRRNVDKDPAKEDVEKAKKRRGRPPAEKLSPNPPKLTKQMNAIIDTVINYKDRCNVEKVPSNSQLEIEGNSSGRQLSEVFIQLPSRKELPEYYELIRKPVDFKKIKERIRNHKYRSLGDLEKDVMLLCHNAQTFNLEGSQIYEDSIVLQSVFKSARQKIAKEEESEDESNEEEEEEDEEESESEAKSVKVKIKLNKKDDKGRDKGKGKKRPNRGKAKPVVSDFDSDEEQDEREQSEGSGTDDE

DC50 (SMARCA2) [nM]	Dmax (SMARCA2) [%]	Fold Selectivity SMARCA4/2 (SMARCA2)	DC50 (SMARCA4) [nM]	Dmax (SMARCA4) [%]	SMILES
24.4	77.9	6.42	156	57	O=C1CCC(c2ccc(N3CCC(F)(CN4CC5(C4)CN(C(=O)C4(c6ccccc6)CCN(c6cnnc(-c7ccccc7O)c6)CC4)C5)CC3)nc2)C(=O)N1 (racemic) [Example 19, rac-(3R)-3-(6-{4-fluoro-4-[(6-{1-[6-(2-hydroxyphenyl)pyridazin-4-yl]-4-phenylpiperidine-4-carbonyl}-2,6-diazaspiro[3.3]heptan-2-yl)methyl]piperidin-1-yl}pyridin-3-yl)piperidine-2,6-dione]
24.6	67.5	406.6		48.3	O=C1CCC(c2ccc(N3CCC(C(=O)N4CC5(C4)CN(C(=O)C4(c6ccccc6)CCN(c6cnnc(-c7ccccc7O)c6)CC4)C5)CC3)cc2)C(=O)N1 (racemic) [Example 20, rac-(3R)-3-{4-[4-(6-{1-[6-(2-hydroxyphenyl)pyridazin-4-yl]-4-phenylpiperidine-4-carbonyl}-2,6-diazaspiro[3.3]heptane-2-carbonyl)piperidin-1-yl]phenyl}piperidine-2,6-dione]
	5.79	1		0.46	O=C1CCC(c2ccc(N3CCN(C(=O)C4CC45CCN(C(=O)C4(c6ccccc6)CCN(c6cnnc(-c7ccccc7O)c6)CC4)C5)CC3)cc2)C(=O)N1 (racemic) [Example 29, rac-(3R)-3-{4-[4-(5-{1-[6-(2-hydroxyphenyl)pyridazin-4-yl]-4-phenylpiperidine-4-carbonyl}-5-azaspiro[2.4]heptane-1-carbonyl)piperazin-1-yl]phenyl}piperidine-2,6-dione]
11.9	78.5	6.99	83.4	59.3	Cc1cccc(C2(C(=O)N3CC4(CN(CC5CCN(c6ccc(C7CCC(=O)NC7=O)cc6)CC5)C4)C3)CCN(c3cnnc(-c4ccccc4O)c3)CC2)c1 (racemic) [Example 43, rac-(3R)-3-(4-{4-[(6-{1-[6-(2-hydroxyphenyl)pyridazin-4-yl]-4-(3-methylphenyl)piperidine-4-carbonyl}-2,6-diazaspiro[3.3]heptan-2-yl)methyl]piperidin-1-yl}phenyl)piperidine-2,6-dione]
6.22	86.6	3.95	24.6	77.5	O=C1CCC(c2ccc(N3CCC(CN4CC5(C4)CN(CC4(c6ccccc6)CCN(c6cnnc(-c7ccccc7O)c6)CC4)C5)CC3)cc2)C(=O)N1 (racemic) [Example 44, rac-(3R)-3-[4-(4-{[6-({-[6-(2-hydroxyphenyl)pyridazin-4-yl]-4-phenylpiperidin-4-yl}methyl)-2,6-diazaspiro[3.3]heptan-2-yl]methyl}piperidin-1-yl)phenyl]piperidine-2,6-dione]
6.7	80.5	8.74	58.6	56.8	Cn1ccc(C2(C(=O)N3CC4(CN(CC5CCN(c6ccc(C7CCC(=O)NC7=O)cc6)CC5)C4)C3)CCN(c3cnnc(-c4ccccc4O)c3)CC2)n1 (racemic) [Example 54, rac-(R)-3-(4-(4-((6-(1-(6-(2-hydroxyphenyl)pyridazin-4-yl)-4-(1-methyl-1H-pyrazol-3-yl)piperidine-4-carbonyl)-2,6-diazaspiro[3.3]heptan-2-yl)methyl)piperidin-1-yl)phenyl)piperidine-2,6-dione]

Second part, the compound before the results:

SMILES	DC50 (SMARCA2) [nM]	Dmax (SMARCA2) [%]	Fold Selectivity SMARCA4/2 (SMARCA2)	DC50 (SMARCA4) [nM]	Dmax (SMARCA4) [%]
CC1(C(=O)N2CCN(c3ccc(C4CCC(=O)NC4=O)cc3)CC2)CCN(C(=O)C2(c3ccccc3)CCN(c3cnnc(-c4ccccc4O)c3)CC2)CC1 (racemic) [Example 21, rac-(3R)-3-{4-[4-(1-{1-[6-(2-hydroxyphenyl)pyridazin-4-yl]-4-phenylpiperidine-4-carbonyl}-4-methylpiperidine-4-carbonyl)piperazin-1-yl]phenyl}piperidine-2,6-dione]		32	1		19.3
O=C1CCC(c2ccc(N3CCN(C(=O)CCCN4CCN(C(=O)C5(c6ccccc6)CCN(c6cnnc(-c7ccccc7O)c6)CC5)CC4)CC3)cc2)C(=O)N1 (racemic) [Example 22, rac-(3R)-3-(4-{4-[4-(4-{1-[6-(2-hydroxyphenyl)pyridazin-4-yl]-4-phenylpiperidine-4-carbonyl}piperazin-1-yl)butanoyl]piperazin-1-yl}phenyl)piperidine-2,6-dione]		30.5	1		20.6
O=C1CCC(c2ccc(N3CCC(CN4CC5(C4)CN(C(=O)C4(Cc6ccccc6)CCN(c6cnnc(-c7ccccc7O)c6)CC4)C5)CC3)cc2)C(=O)N1 (racemic) [Example 26, rac-(3R)-3-(4-{4-[(6-{4-benzyl-1-[6-(2-hydroxyphenyl)pyridazin-4-yl]piperidine-4-carbonyl}-2,6-diazaspiro[3.3]heptan-2-yl)methyl]piperidin-1-yl}phenyl)piperidine-2,6-dione]		14.1	1		14.6
O=C1CCC(c2ccc(N3CCC(CN4CC5(C4)CN(C(=O)C4(c6cccc(Cl)c6)CCN(c6cnnc(-c7ccccc7O)c6)CC4)C5)CC3)cc2)C(=O)N1 (racemic) [Example 27, rac-(3R)-3-{4-[4-({6-[4-(3-chlorophenyl)-1-[6-(2-hydroxyphenyl)pyridazin-4-yl]piperidine-4-carbonyl]-2,6-diazaspiro[3.3]heptan-2-yl}methyl)piperidin-1-yl]phenyl}piperidine-2,6-dione]	18.2	72.8	7.24	132	56.5
O=C1CCC(c2ccc(N3CCC(CN4CC5(C4)CN(C(=O)C4(c6ccc(Cl)c(Cl)c6)CCN(c6cnnc(-c7ccccc7O)c6)CC4)C5)CC3)cc2)C(=O)N1 (racemic) [Example 32, rac-(3R)-3-{4-[4-({6-[4-(3,4-dichlorophenyl)-1-[6-(2-hydroxyphenyl)pyridazin-4-yl]piperidine-4-carbonyl]-2,6-diazaspiro[3.3]heptan-2-yl}methyl)piperidin-1-yl]phenyl}piperidine-2,6-dione]	71.7	63	139.55		37.2
Cc1ccccc1C1(C(=O)N2CC3(CN(CC4CCN(c5ccc(C6CCC(=O)NC6=O)cc5)CC4)C3)C2)CCN(c2cnnc(-c3ccccc3O)c2)CC1 (racemic) [Example 33, rac-(3R)-3-(4-{4-[(6-{1-[6-(2-hydroxyphenyl)pyridazin-4-yl]-4-(2-methylphenyl)piperidine-4-carbonyl}-2,6-diazaspiro[3.3]heptan-2-yl)methyl]piperidin-1-yl}phenyl)piperidine-2,6-dione]	11.7	78.9	6.16	71.9	56
O=C1CCC(c2ccc(N3CCC(CN4CC5(C4)CN(C(=O)C4(c6cccnc6)CCN(c6cnnc(-c7ccccc7O)c6)CC4)C5)CC3)cc2)C(=O)N1 (racemic) [Example 34, rac-(3R)-3-(4-{4-[(6-{1-[6-(2-hydroxyphenyl)pyridazin-4-yl]-4-(pyridin-3-yl)piperidine-4-carbonyl}-2,6-diazaspiro[3.3]heptan-2-yl)methyl]piperidin-1-yl}phenyl)piperidine-2,6-dione]	47	58.6	212.72		30.6
